According to PubChem BioAssay AID1963986 (Molecular Pharmacology Branch, DTP, NCI, 2024):

System: 171881-019-R-J1-PDC tumor spheroid viability
Assay: Anticancer human tumor 171881-019-R-J1-PDC patient-derived invasive breast carcinoma cell line growth inhibition [PI3K]
Conditions: spheroids with HUVEC and MSC; for IC50: curve of first compound; for viability, T/C: stronger effect = lower value
Source text: Combinatorial screen of targeted agents with the PI3K inhibitors inavolisib, alpelisib, duvelisib, and copanlisib in multi-cell type tumor spheroids
A high-throughput screen of multi-cell type tumor spheroids was designed to identify active combinations of targeted small molecules and PI3K pathway inhibitors. Complex spheroids include a stromal component modeled by human endothelial cells (HUVEC) and fibroblasts modeled by human mesenchymal stem cells (MSCs). The concentration ranges selected for each drug and investigational agent were based upon clinically achievable concentrations if the clinical Cmax of the agent was known.
Compounds. The drugs and investigational agents: inavolisib (NSC800729), alpelisib (NSC765974), duvelisib (NSC772469), copanlisib (NSC816437), ipatasertib (NSC767898), afuresertib (NSC778305), talazoparib (NSC767125), sapanisertib (NSC764658), selumetinib (NSC741078), tovorafenib (DAY101, NSC766906), vemurafenib (NSC761431), ravoxertinib (NSC781343), sotorasib (NSC818433), MRTX1133 (NSC 836407), abemaciclib (NSC 768073), palbociclib (NSC758247), venetoclax (NSC 766270), SY5609 (NSC837396), enzalutamide (NSC755605), and darolutamide (NSC825331), were obtained from the National Cancer Institute (NCI) Developmental Therapeutics Program Chemical Repository. The FDA-approved anticancer drug set is available from the NCI Developmental Therapeutics Program. […] The stock solutions were prepared in dimethyl sulfoxide (DMSO, Sigma-Aldrich, St. Louis, MO, cat. D2650) at 800-fold the tested concentration and stored at -70 degrees C prior to their use. All drugs and investigational agents were tested over a range starting from a high concentration at or near the clinical Cmax and decreasing in half-log increments. If the clinical Cmax for an agent had not been determined, the highest concentration tested was 10 microM.
Cell Culture. All cells were maintained in an incubator at 37 degrees C and 5% CO2 with 95% humidity. The PDC lines were cultured according to standard operating procedures established by the NCI PDMR (https://pdmr.cancer.gov/sops/default.htm). All PDCs were thawed and cultured in Matrigel-coated flasks prepared with a working solution of 1X Ham's F-12 nutrient mix, without supplementation (Invitrogen, Waltham, MA, cat. 11765054), 100 U/mL penicillin-streptomycin (Invitrogen, cat. 15140122), and 2.5% Matrigel (Corning Inc., Corning, NY, cat. 354248) for the first three passages. The 354836-022-R-J1-PDC, 475296-252-R-J1-PDC, and 997726-040-R-J2-PDC lines were cultured in 6A media, which includes advanced DMEM/F-12 (Thermo Fisher Scientific, cat. 12634028), 10 mM HEPES (Thermo Fisher Scientific, cat. 15630080), 1X GlutaMAX supplement (Thermo Fisher Scientific, cat. 35050061), 0.1 mg/mL primocin (InvivoGen, San Diego, CA, cat. ant-pm-2), 10% defined fetal bovine serum, heat inactivated (HyClone Laboratories Inc., Logan, UT, cat. SH30070.03HI), 50% L-WRN conditioned media (ATCC, cat. CRL-3276), 1.25 mM N-Acetyl-L-cysteine (Sigma-Aldrich, cat. A9165), 10 mM nicotinamide (Sigma-Aldrich, cat. N0636), 1X B-27 supplement (Thermo Fisher Scientific, cat. 17504044), 1X N-2 supplement (Thermo Fisher Scientific, cat. 17502048), and 10 microM Y-27632 dihydrochloride (Tocris Bioscience, Bristol, United Kingdom, cat. 1254). The 624824-186-R-J2-PDC line was cultured in 6C/Colon 1B media, which includes all 6A media components plus 50 ng/mL human EGF recombinant protein (Thermo Fisher Scientific, cat. PHG0311). […]
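Note: spheroids exposed to compound for 7 days before viability read.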
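Throughout, for viability, T/C: 100% = DMSO vehicle-treated spheroids.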

## Cn1cnc2c(F)c(Nc3ccc(Br)cc3Cl)c(C(=O)NOCCO)cc21 + CC(Nc1ccc2c(c1)OCCn1cc(N3C(=O)OCC3C(F)F)nc1-2)C(N)=O
Second compound 0.00316 µM
  IC50: 422 nM
Second compound 0.01 µM
  IC50: 71 nM
Second compound 0.0316 µM
  IC50: < 9.49 nM
Second compound 0.1 µM
  IC50: < 9.49 nM
Second compound 0.316 µM
  IC50: < 9.49 nM
Second compound 1 µM
  IC50: < 9.49 nM
Second compound 0.00316 µM, first compound 0.00949 µM
  viability, T/C: 63.8%
Second compound 0.00316 µM, first compound 0.03 µM
  viability, T/C: 71.5%
Second compound 0.00316 µM, first compound 0.0949 µM
  viability, T/C: 64.9%
Second compound 0.00316 µM, first compound 0.3 µM
  viability, T/C: 56.4%
Second compound 0.00316 µM, first compound 0.949 µM
  viability, T/C: 34.3%
Second compound 0.00316 µM, first compound 3 µM
  viability, T/C: 15.4%
Second compound 0.01 µM, first compound 0.00949 µM
  viability, T/C: 60.4%
Second compound 0.01 µM, first compound 0.03 µM
  viability, T/C: 54.8%
Second compound 0.01 µM, first compound 0.0949 µM
  viability, T/C: 46.9%
Second compound 0.01 µM, first compound 0.3 µM
  viability, T/C: 40.9%
Second compound 0.01 µM, first compound 0.949 µM
  viability, T/C: 23.9%
Second compound 0.01 µM, first compound 3 µM
  viability, T/C: 10.1%
Second compound 0.0316 µM, first compound 0.00949 µM
  viability, T/C: 44.8%
Second compound 0.0316 µM, first compound 0.03 µM
  viability, T/C: 38.7%
Second compound 0.0316 µM, first compound 0.0949 µM
  viability, T/C: 33.9%
Second compound 0.0316 µM, first compound 0.3 µM
  viability, T/C: 26.8%
Second compound 0.0316 µM, first compound 0.949 µM
  viability, T/C: 16.4%
Second compound 0.0316 µM, first compound 3 µM
  viability, T/C: 6.34%
Second compound 0.1 µM, first compound 0.00949 µM
  viability, T/C: 30.6%
Second compound 0.1 µM, first compound 0.03 µM
  viability, T/C: 27.1%
Second compound 0.1 µM, first compound 0.0949 µM
  viability, T/C: 24.2%
Second compound 0.1 µM, first compound 0.3 µM
  viability, T/C: 17.7%
Second compound 0.1 µM, first compound 0.949 µM
  viability, T/C: 9.75%
Second compound 0.1 µM, first compound 3 µM
  viability, T/C: 2.93%
Second compound 0.316 µM, first compound 0.00949 µM
  viability, T/C: 20.9%
Second compound 0.316 µM, first compound 0.03 µM
  viability, T/C: 18.9%
Second compound 0.316 µM, first compound 0.0949 µM
  viability, T/C: 15.3%
Second compound 0.316 µM, first compound 0.3 µM
  viability, T/C: 11.7%
Second compound 0.316 µM, first compound 0.949 µM
  viability, T/C: 4.97%
Second compound 0.316 µM, first compound 3 µM
  viability, T/C: 1.75%
Second compound 1 µM, first compound 0.00949 µM
  viability, T/C: 16.9%
Second compound 1 µM, first compound 0.03 µM
  viability, T/C: 13.7%
Second compound 1 µM, first compound 0.0949 µM
  viability, T/C: 12.7%
Second compound 1 µM, first compound 0.3 µM
  viability, T/C: 8.33%
Second compound 1 µM, first compound 0.949 µM
  viability, T/C: 2.91%
Second compound 1 µM, first compound 3 µM
  viability, T/C: 1.25%
